The record followed here is patent publication US8993752B2, “Neprilysin inhibitors” (Theravance Biopharma R&D IP, LLC, priority 2011, dated 2015).

Structures are written as SMILES.

This assay concerns the target T1, human NEP (Homo sapiens, UniProt P08473).
T1 construct: purchased R&D Systems, Minneapolis, Minn; 1182-ZN
The experiment in a line: In vitro enzyme inhibition assay at human NEP (fluorogenic peptide substrate). The class given is biochemical. As to conditions: recombinant human NEP; substrate Mca-D-Arg-Arg-Leu-Dap-(Dnp)-OH 10 μM; 37° C.; values given as ranges; read-out: pKi values at human NEP (converted). As to the method:
The inhibitory activities of compounds at human and rat neprilysin (EC 3.4.24.11; NEP) and human angiotensin converting enzyme (ACE) were determined using in vitro assays as described below.
Recombinant human NEP and recombinant human ACE were obtained commercially (R&D Systems, Minneapolis, Minn., catalog numbers 1182-ZN and 929-ZN, respectively). The fluorogenic peptide substrate Mca-D-Arg-Arg-Leu-Dap-(Dnp)-OH (Medeiros et al. (1997) Braz. J. Med. Biol. Res. 30:1157-62; Anaspec, San Jose, Calif.) and Abz-Phe-Arg-Lys(Dnp)-Pro-OH (Araujo et al. (2000) Biochemistry 39:8519-8525; Bachem, Torrance, Calif.) were used in the NEP and ACE assays respectively.
The assays were performed in 384-well white opaque plates at 37° C. using the fluorogenic peptide substrates at a concentration of 10 μM in Assay Buffer (NEP: 50 mM HEPES, pH 7.5, 100 mM NaCl, 0.01% polyethylene glycol sorbitan monolaurate (Tween-20), 10 μM ZnSO4; ACE: 50 mM HEPES, pH 7.5, 100 mM NaCl, 0.01% Tween-20, 1 μM ZnSO4).
Test compounds were assayed over the range of concentrations from 10 μM to 20 pM. Test compounds were added to the enzymes and incubated for 30 minute at 37° C. prior to initiating the reaction by the addition of substrate. Reactions were terminated after 20 minutes of incubation at 37° C. by the addition of glacial acetic acid to a final concentration of 3.6% (v/v).
Plates were read on a fluorometer with excitation and emission wavelengths set to 320 nm and 405 nm, respectively Inhibition constants were obtained by nonlinear regression of the data using the equation (GraphPad Software, Inc., San Diego, Calif.): v=v0/[1+(I/K′)] where v is the reaction rate, v0 is the uninhibited reaction rate, I is the inhibitor concentration and K′ is the apparent inhibition constant.
Compounds of the invention were tested in this assay and found to have pKi values at human NEP as follows.

T1 sequence (P08473 whole entry): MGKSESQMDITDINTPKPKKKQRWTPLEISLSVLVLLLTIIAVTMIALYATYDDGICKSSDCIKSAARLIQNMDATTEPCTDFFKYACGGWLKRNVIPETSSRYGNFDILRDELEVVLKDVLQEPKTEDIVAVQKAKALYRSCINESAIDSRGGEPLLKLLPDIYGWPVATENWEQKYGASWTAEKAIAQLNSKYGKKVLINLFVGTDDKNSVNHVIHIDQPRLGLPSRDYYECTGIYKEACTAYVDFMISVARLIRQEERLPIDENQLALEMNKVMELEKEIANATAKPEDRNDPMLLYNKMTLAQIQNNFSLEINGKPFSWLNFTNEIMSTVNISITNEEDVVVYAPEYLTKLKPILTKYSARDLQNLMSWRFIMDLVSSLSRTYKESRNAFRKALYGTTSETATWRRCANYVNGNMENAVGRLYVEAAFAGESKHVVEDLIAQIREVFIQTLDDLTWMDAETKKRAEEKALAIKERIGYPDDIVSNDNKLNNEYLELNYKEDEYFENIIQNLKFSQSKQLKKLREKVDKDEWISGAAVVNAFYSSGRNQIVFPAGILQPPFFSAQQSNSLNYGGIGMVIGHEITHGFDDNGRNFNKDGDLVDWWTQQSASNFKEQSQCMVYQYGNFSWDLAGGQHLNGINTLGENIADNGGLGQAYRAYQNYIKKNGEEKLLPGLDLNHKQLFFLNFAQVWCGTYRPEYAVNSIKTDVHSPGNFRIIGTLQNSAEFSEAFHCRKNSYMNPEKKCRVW

Regarding `COc1ccc(Cn2nc(C(=O)N[C@H](Cc3ccccc3Cl)[C@@H](O)C(=O)O)cc2C(C)=O)cc1` [Example 2-70, (2R,3R)-3-{[5-Acetyl-1-(4-methoxy-benzyl)-1H-pyrazole-3-carbonyl]-amino}-4-(2-chloro-phenyl)-2-hydroxy-butyric acid], the Ki was 0.00126 to 0.01 µM.
Consider `COc1ccc(Cn2nc(C(=O)N[C@H](Cc3ccccc3)[C@@H](O)C(=O)O)cc2C2CC2)cc1` [Example 8-20, (2R,3R)-3-{[5-Cyclopropyl-1-(4-methoxy-benzyl)-1H-pyrazole-3-carbonyl]-amino}-2-hydroxy-4-phenyl-butyric acid], for which the Ki was 0.00126 to 0.01 µM.
For `O=C(N[C@H](Cc1ccccc1C(F)(F)F)[C@@H](O)C(=O)O)c1cc(C(=O)N2CC[C@@H](O)C2)[nH]n1` [Example 6-10, (2R,3R)-2-Hydroxy-3-{[5-((R)-3-hydroxy-pyrrolidine-1-carbonyl)-1H-pyrazole-3-carbonyl]-amino}-4-(2-trifluoromethyl-phenyl)-butyric acid], the Ki is 0.00126 to 0.01 µM.
As to `O=C(O)C[C@@H](Cc1ccccc1Cl)NC(=O)c1cc(C(=O)O)n(Cc2ccccc2)n1` [Example 11-4, 2-Benzyl-5-[(R)-2-carboxy-1-(2-chloro-benzyl)-ethylcarbamoyl]-2H-pyrazole-3-carboxylic acid], the Ki is 0.0126 to 0.1 µM.
For `O=C(N[C@H](Cc1ccccc1)[C@@H](O)C(=O)O)c1cc(C(=O)O)[nH]n1` [Example 8-10, 5-((1R,2R)-1-Benzyl-2-carboxy-2-hydroxy-ethylcarbamoyl)-2H-pyrazole-3-carboxylic acid] the value was 0.0126 to 0.1 µM; for `COc1c(F)cc(Cn2nc(C(=O)N[C@H](Cc3ccccc3Cl)[C@@H](O)C(=O)O)cc2C(=O)O)cc1Cl` [Example 2-17, 5-[(1R,2R)-2-Carboxy-1-(2-chloro-benzyl)-2-hydroxy-ethylcarbamoyl]-2-(3-chloro-5-fluoro-4-methoxy-benzyl)-2H-pyrazole-3-carboxylic acid], 0.00126 to 0.01 µM.
For `O=C(N[C@H](Cc1ccccc1C(F)(F)F)[C@@H](O)C(=O)O)c1cc(C(=O)N2CCC(O)CC2)[nH]n1` [Example 6-8, (2R,3R)-2-Hydroxy-3-{[5-(4-hydroxy-piperidine-1-carbonyl)-1H-pyrazole-3-carbonyl]-amino}-4-(2-trifluoromethyl-phenyl)-butyric acid], the Ki is 0.0126 to 0.1 µM.
For `COc1ccc(Cn2nc(C(=O)N[C@H](Cc3ccccc3Cl)[C@@H](O)C(=O)O)cc2C(=O)O)cc1` [Example 2-21, 5-[(1R,2R)-2-Carboxy-1-(2-chloro-benzyl)-2-hydroxy-ethylcarbamoyl]-2-(4-methoxy-benzyl)-2H-pyrazole-3-carboxylic acid], the Ki is not above 0.001 µM.
On to `O=C(N[C@H](Cc1ccccc1Cl)[C@@H](O)C(=O)O)c1cc(C(=O)O)[nH]n1` [Example 2-45, 5-[(1R,2R)-2-Carboxy-1-(2-chloro-benzyl)-2-hydroxy-ethylcarbamoyl]-2H-pyrazole-3-carboxylic acid], for which the Ki was 0.00126 to 0.01 µM.
For `CC(c1ccccc1)n1nc(C(=O)N[C@H](Cc2ccccc2Cl)[C@@H](O)C(=O)O)cc1C(=O)O` (stereo partly drawn) [Example 2-60, 5-[(1R,2R)-2-Carboxy-1-(2-chloro-benzyl)-2-hydroxy-ethylcarbamoyl]-2-(1-phenyl-ethyl)-2H-pyrazole-3-carboxylic acid] the value was 0.0126 to 0.1 µM.
For the compound `O=C(N[C@H](Cc1ccccc1Cl)[C@@H](O)C(=O)O)c1cc(-c2ccc(Cl)cc2Cl)n[nH]1` [Example 3-8, (2R,3R)-4-(2-Chloro-phenyl)-3-{[5-(2,4-dichloro-phenyl)-2H-pyrazole-3-carbonyl]-amino}-2-hydroxy-butyric acid], the Ki was 0.00126 to 0.01 µM.
In the case of `O=C(N[C@H](Cc1ccccc1)[C@@H](O)C(=O)O)c1cc(C(=O)O)n(Cc2cccc(F)c2)n1` [Example 8-4, 5-((1R,2R)-1-Benzyl-2-carboxy-2-hydroxy-ethylcarbamoyl)-2-(3-fluoro-benzyl)-2H-pyrazole-3-carboxylic acid], the Ki is 0.00126 to 0.01 µM.
The figure for `COc1ccc(Cn2nc(C(=O)N[C@H](Cc3ccccc3Cl)[C@@H](O)C(=O)O)cc2C(=O)O)c(F)c1F` [Example 2-27, 5-[(1R,2R)-2-Carboxy-1-(2-chloro-benzyl)-2-hydroxy-ethylcarbamoyl]-2-(2,3-difluoro-4-methoxy-benzyl)-2H-pyrazole-3-carboxylic acid] is not above 0.001 µM; for `CN(C)C(=O)c1cc(C(=O)N[C@H](Cc2ccccc2Cl)[C@@H](O)C(=O)O)nn1Cc1ccc(F)cc1` [Example 2-72, (2R,3R)-4-(2-Chloro-phenyl)-3-{[5-dimethylcarbamoyl-1-(4-fluoro-benzyl)-1H-pyrazole-3-carbonyl]-amino}-2-hydroxy-butyric acid] it is 0.0126 to 0.1 µM; for `O=C(N[C@H](Cc1ccccc1Cl)[C@@H](O)C(=O)O)c1cc(C(=O)O)n(Cc2ccc(Cl)c(SC(F)(F)F)c2)n1` [Example 2-9, 5-[(1R,2R)-2-Carboxy-1-(2-chloro-benzyl)-2-hydroxy-ethylcarbamoyl]-2-(4-chloro-3-trifluoromethylsulfanyl-benzyl)-2H-pyrazole-3-carboxylic acid] it is 0.0126 to 0.1 µM.
For `CCCCc1cc(C(=O)N[C@H](Cc2ccccc2Cl)[C@@H](O)C(=O)O)[nH]n1` [Example 3-1, (2R,3R)-3-[(5-Butyl-2H-pyrazole-3-carbonyl)-amino]-4-(2-chloro-phenyl)-2-hydroxy-butyric acid] the value was 0.0126 to 0.1 µM; for `O=C(N[C@H](Cc1ccccc1C(F)(F)F)[C@@H](O)C(=O)O)c1cc(C(=O)O)[nH]n1` [Example 6-2, 5-[(1R,2R)-2-Carboxy-2-hydroxy-1-(2-trifluoromethyl-benzyl)-ethylcarbamoyl]-2H-pyrazole-3-carboxylic acid], 0.00126 to 0.01 µM; for `O=C(N[C@H](Cc1ccccc1Cl)[C@@H](O)C(=O)O)c1cc(-c2ccccc2Cl)n(-c2ccc(Cl)c(Cl)c2)n1` [Example 2-63, (2R,3R)-4-(2-Chloro-phenyl)-3-{[5-(2-chloro-phenyl)-1-(3,4-dichloro-phenyl)-1H-pyrazole-3-carbonyl]-amino}-2-hydroxy-butyric acid], 0.0126 to 0.1 µM.
The figure for `CCCCc1cc(C(=O)N[C@H](Cc2ccccc2Cl)[C@@H](O)C(=O)O)nn1Cc1c(F)c(F)c(OC)c(F)c1F` [Example 2-69, (2R,3R)-3-{[5-Butyl-1-(2,3,5,6-tetrafluoro-4-methoxy-benzyl)-1H-pyrazole-3-carbonyl]-amino}-4-(2-chloro-phenyl)-2-hydroxy-butyric acid] is not above 0.001 µM; for `O=C(N[C@H](Cc1ccccc1)[C@@H](O)C(=O)O)c1ccn(Cc2ccc(Cl)cc2)n1` [Example 8-16, (2R,3R)-3-{[1-(4-Chloro-benzyl)-1H-pyrazole-3-carbonyl]-amino}-2-hydroxy-4-phenyl-butyric acid] it is 0.0126 to 0.1 µM; for `COc1ccc(Cn2nc(C(=O)N[C@H](Cc3ccccc3Cl)[C@@H](O)C(=O)O)cc2C(=O)N(C)C)cc1` [Example 2-73, (2R,3R)-4-(2-Chloro-phenyl)-3-{[5-dimethylcarbamoyl-1-(4-methoxy-benzyl)-1H-pyrazole-3-carbonyl]-amino}-2-hydroxy-butyric acid] it is 0.0126 to 0.1 µM.
Regarding `O=C(N[C@H](Cc1ccccc1)[C@@H](O)C(=O)O)c1cc(C(=O)O)n(Cc2c(F)cc(Cl)cc2F)n1` [Example 8-3, 5-((1R,2R)-1-Benzyl-2-carboxy-2-hydroxy-ethylcarbamoyl)-2-(4-chloro-2,6-difluoro-benzyl)-2H-pyrazole-3-carboxylic acid], the Ki is 0.00126 to 0.01 µM.
Regarding `COc1c(F)c(F)c(Cn2nc(C(=O)N[C@H](Cc3ccccc3Cl)[C@@H](O)C(=O)O)cc2C(=O)O)c(F)c1F` [Example 2-35, 5-[(1R,2R)-2-Carboxy-1-(2-chloro-benzyl)-2-hydroxy-ethylcarbamoyl]-2-(2,3,5,6-tetrafluoro-4-methoxy-benzyl)-2H-pyrazole-3-carboxylic acid], the Ki was not above 0.001 µM.
For the compound `O=C(N[C@H](Cc1ccccc1Cl)[C@@H](O)C(=O)O)c1cc(C(=O)O)n(Cc2ccc(Cl)cc2)n1` [Example 2-1, 5-[(1R,2R)-2-Carboxy-1-(2-chloro-benzyl)-2-hydroxy-ethylcarbamoyl]-2-(4-chloro-benzyl)-2H-pyrazole-3-carboxylic acid], the Ki was 0.00126 to 0.01 µM.
Regarding `Cc1cc(Cn2nc(C(=O)N[C@H](Cc3ccccc3Cl)[C@@H](O)C(=O)O)cc2C(=O)O)no1` [Example 2-61, 5-[(1R,2R)-2-Carboxy-1-(2-chloro-benzyl)-2-hydroxy-ethylcarbamoyl]-2-(5-methyl-isoxazol-3-ylmethyl)-2H-pyrazole-3-carboxylic acid], the Ki is 0.00126 to 0.01 µM.
